Source: paper PMC5218480 (PLoS ONE, 2017)

System: MV-4-11 cells
Assay: Gene expression microarray analysis (Affymetrix PrimeView) and GSEA
Format: cell-based, human
Parameters: RFU PODN (11730768_x_at) / Fold change /veh PODN (11730768_x_at) / RFU LINC00158 (11744669_a_at) / Fold change /veh LINC00158 (11744669_a_at) / RFU DUSP10 (11751237_a_at) / Fold change /veh DUSP10 (11751237_a_at) / RFU ID3 (11757404_x_at) / Fold change /veh ID3 (11757404_x_at) / RFU PLEKHG5 (11737974_s_at) / Fold change /veh PLEKHG5 (11737974_s_at) / RFU LRRC4B (11730491_at) / Fold change /veh LRRC4B (11730491_at) / RFU GIMAP4 (11747438_a_at) / Fold change /veh GIMAP4 (11747438_a_at) / RFU KRT8 (11758183_x_at) / Fold change /veh KRT8 (11758183_x_at) / RFU CNN1 (11734310_a_at) / Fold change /veh CNN1 (11734310_a_at) / RFU VPS37D (11726825_at) / Fold change /veh VPS37D (11726825_at) / RFU C10orf10 (11716522_x_at) / Fold change /veh C10orf10 (11716522_x_at) / RFU KIR2DL2 /// KIR2DL4 /// KIR2DL5A /// KIR2DL5B /// KIR2DS1 /// KIR2DS2 /// KIR2DS3 /// KIR2DS4 /// KIR3DL3 /// KIR3DL3 /// KIR3DS1 (11738374_at) / Fold change /veh KIR2DL2 /// KIR2DL4 /// KIR2DL5A /// KIR2DL5B /// KIR2DS1 /// KIR2DS2 /// KIR2DS3 /// KIR2DS4 /// KIR3DL3 /// KIR3DL3 /// KIR3DS1 (11738374_at) / RFU C1QL1 (11718748_at) / Fold change /veh C1QL1 (11718748_at) / RFU TMPRSS4 (11747572_a_at) / Fold change /veh TMPRSS4 (11747572_a_at) / RFU HAMP (11756126_x_at) / Fold change /veh HAMP (11756126_x_at) / RFU RNFT2 (11725882_a_at) / Fold change /veh RNFT2 (11725882_a_at) / RFU NR4A2 (11747474_a_at) / Fold change /veh NR4A2 (11747474_a_at) / RFU ABCC12 (11746883_a_at) / Fold change /veh ABCC12 (11746883_a_at) / RFU TMEM136 (11760407_x_at) / Fold change /veh TMEM136 (11760407_x_at) / RFU CLDN22 /// WWC2 (11732394_at) / Fold change /veh CLDN22 /// WWC2 (11732394_at) / RFU HLA-DPB1 (11760878_x_at) / Fold change /veh HLA-DPB1 (11760878_x_at) / RFU SPINT1 (11716480_a_at) / Fold change /veh SPINT1 (11716480_a_at) / RFU GAP43 (11754022_s_at) / Fold change /veh GAP43 (11754022_s_at) / RFU A4GNT (11735810_at) / Fold change /veh A4GNT (11735810_at) / RFU PRB3 (11715151_x_at) / Fold change /veh PRB3 (11715151_x_at) / RFU TUBB4B (11761932_at) / Fold change /veh TUBB4B (11761932_at) / RFU CAPN14 (11732068_a_at) / Fold change /veh CAPN14 (11732068_a_at) / RFU TMCC2 (11721928_a_at) / Fold change /veh TMCC2 (11721928_a_at) / RFU IRGQ (11745062_a_at) / Fold change /veh IRGQ (11745062_a_at) / RFU FAM174B (11720279_a_at) / Fold change /veh FAM174B (11720279_a_at) / RFU TMPRSS4 (11748680_a_at) / Fold change /veh TMPRSS4 (11748680_a_at) / RFU FAM212B (11763350_a_at) / Fold change /veh FAM212B (11763350_a_at) / RFU PLEKHG5 (11743358_a_at) / Fold change /veh PLEKHG5 (11743358_a_at) / RFU ZSCAN30 (11745921_a_at) / Fold change /veh ZSCAN30 (11745921_a_at) / RFU CMKLR1 (11741424_a_at) / Fold change /veh CMKLR1 (11741424_a_at) / RFU LOC101060620 /// MAPK8IP1 (11723275_at) / Fold change /veh LOC101060620 /// MAPK8IP1 (11723275_at) / RFU SPTSSB (11747773_x_at) / Fold change /veh SPTSSB (11747773_x_at) / RFU PRSS12 (11739890_at) / Fold change /veh PRSS12 (11739890_at) / RFU BIN1 (11741810_x_at) / Fold change /veh BIN1 (11741810_x_at) / RFU WNT11 (11732464_a_at) / Fold change /veh WNT11 (11732464_a_at) / RFU C10orf10 (11716521_a_at) / Fold change /veh C10orf10 (11716521_a_at) / RFU C5orf56 (11738089_at) / Fold change /veh C5orf56 (11738089_at) / RFU CYB561 (11721691_x_at) / Fold change /veh CYB561 (11721691_x_at) / RFU ANKRD19P (11752326_a_at) / Fold change /veh ANKRD19P (11752326_a_at) / RFU OR2T12 /// OR2T33 /// OR2T8 (11738714_s_at) / Fold change /veh OR2T12 /// OR2T33 /// OR2T8 (11738714_s_at) / RFU VCAN (11748164_a_at) / Fold change /veh VCAN (11748164_a_at) / RFU JSRP1 (11732532_at) / Fold change /veh JSRP1 (11732532_at) / RFU KRTAP10-11 (11738290_x_at) / Fold change /veh KRTAP10-11 (11738290_x_at) / RFU MYO3A (11730013_a_at) / Fold change /veh MYO3A (11730013_a_at) / RFU EBF3 (11725865_a_at) / Fold change /veh EBF3 (11725865_a_at) / RFU CAMK2N1 (11719241_x_at) / Fold change /veh CAMK2N1 (11719241_x_at) / RFU C5orf56 (11738088_a_at) / Fold change /veh C5orf56 (11738088_a_at) / RFU OLFML3 (11715873_a_at) / Fold change /veh OLFML3 (11715873_a_at) / RFU LOC100653217 /// NTM (11731650_a_at) / Fold change /veh LOC100653217 /// NTM (11731650_a_at) / RFU MAPK11 (11762145_a_at) / Fold change /veh MAPK11 (11762145_a_at) / RFU FIZ1 (11724087_x_at) / Fold change /veh FIZ1 (11724087_x_at) / RFU OASL (11726364_x_at) / Fold change /veh OASL (11726364_x_at) / RFU SOX15 (11748057_x_at) / Fold change /veh SOX15 (11748057_x_at) / RFU CD79A (11719716_a_at) / Fold change /veh CD79A (11719716_a_at) / RFU HIST1H1D (11736915_at) / Fold change /veh HIST1H1D (11736915_at) / RFU CASKIN2 (11723855_a_at) / Fold change /veh CASKIN2 (11723855_a_at) / RFU LOC730098 (11760151_x_at) / Fold change /veh LOC730098 (11760151_x_at) / RFU OR4N2 (11742367_at) / Fold change /veh OR4N2 (11742367_at) / RFU PRRT2 (11749266_a_at) / Fold change /veh PRRT2 (11749266_a_at) / RFU SNX32 (11753110_a_at) / Fold change /veh SNX32 (11753110_a_at) / RFU CDHR5 (11726645_a_at) / Fold change /veh CDHR5 (11726645_a_at) / RFU RCAN1 (11760418_a_at) / Fold change /veh RCAN1 (11760418_a_at) / RFU FAM167A (11723789_a_at) / Fold change /veh FAM167A (11723789_a_at) / RFU FAM26E (11764081_at) / Fold change /veh FAM26E (11764081_at) / RFU ISYNA1 (11749810_s_at) / Fold change /veh ISYNA1 (11749810_s_at) / RFU ACY1 (11761880_at) / Fold change /veh ACY1 (11761880_at) / RFU 11764098_at / Fold change /veh 11764098_at / RFU SAMD14 (11745864_x_at) / Fold change /veh SAMD14 (11745864_x_at) / RFU NPB (11741838_a_at) / Fold change /veh NPB (11741838_a_at) / RFU TMPRSS6 (11731388_a_at) / Fold change /veh TMPRSS6 (11731388_a_at) / RFU KRTAP10-2 (11738614_at) / Fold change /veh KRTAP10-2 (11738614_at) / RFU ARHGAP8 /// PRR5-ARHGAP8 (11727945_x_at) / Fold change /veh ARHGAP8 /// PRR5-ARHGAP8 (11727945_x_at) / RFU KRTAP5-7 /// NADSYN1 (11734609_at) / Fold change /veh KRTAP5-7 /// NADSYN1 (11734609_at) / RFU RASL12 (11751679_a_at) / Fold change /veh RASL12 (11751679_a_at) / RFU CDKN2B (11736163_a_at) / Fold change /veh CDKN2B (11736163_a_at) / RFU PRF1 (11729649_at) / Fold change /veh PRF1 (11729649_at) / RFU, ZNF638 /// ZNF638-IT1 / Fold change vs veh, ZNF638 /// ZNF638-IT1 / RFU, PANK3 / Fold change vs veh, PANK3 / RFU, SH3YL1 / Fold change vs veh, SH3YL1 / RFU, ZEB2 / Fold change vs veh, ZEB2 / RFU, NRIP1 / Fold change vs veh, NRIP1 / RFU, PTTG1IP / Fold change vs veh, PTTG1IP / RFU, CAPN2 / Fold change vs veh, CAPN2 / RFU, MED14 / Fold change vs veh, MED14 / RFU, SNORA58 / Fold change vs veh, SNORA58 / RFU, C1orf63 / Fold change vs veh, C1orf63 / RFU, LRRFIP1 / Fold change vs veh, LRRFIP1 / RFU, NDUFAF7 / Fold change vs veh, NDUFAF7 / RFU, SLC12A2 / Fold change vs veh, SLC12A2 / RFU, IBTK / Fold change vs veh, IBTK / RFU, ESF1 / Fold change vs veh, ESF1 / Fold change vs veh, TMEM50B / RFU, TAOK1 / Fold change vs veh, TAOK1 / RFU, ACBD3 / Fold change vs veh, ACBD3 / RFU, TMA16 / Fold change vs veh, TMA16 / RFU, RWDD3 / Fold change vs veh, RWDD3 / RFU, BCAT1 / Fold change vs veh, BCAT1 / RFU, EDEM3 / Fold change vs veh, EDEM3 / RFU, TMEM33 / Fold change vs veh, TMEM33 / RFU, WDR75 / Fold change vs veh, WDR75 / RFU, AHCTF1 / Fold change vs veh, AHCTF1 / RFU, TFRC / Fold change vs veh, TFRC / RFU, ZDHHC17 / Fold change vs veh, ZDHHC17 / RFU, NOM1 / Fold change vs veh, NOM1 / RFU, ARL8B / Fold change vs veh, ARL8B / RFU, ZBTB11 / Fold change vs veh, ZBTB11 / RFU, TAMM41 / Fold change vs veh, TAMM41 / RFU, KIAA1704 /// LOC100996395 / Fold change vs veh, KIAA1704 /// LOC100996395 / RFU, ING1 / Fold change vs veh, ING1 / RFU, TRMT61B / Fold change vs veh, TRMT61B / RFU, FUBP3 / Fold change vs veh, FUBP3 / RFU, TP53 / Fold change vs veh, TP53 / RFU, TNKS2 / Fold change vs veh, TNKS2 / RFU, ZFP14 / Fold change vs veh, ZFP14 / RFU, ACTR2 / Fold change vs veh, ACTR2 / RFU, PPP3R1 / Fold change vs veh, PPP3R1 / RFU, PIK3R1 / Fold change vs veh, PIK3R1 / RFU, HNRNPA1 / Fold change vs veh, HNRNPA1 / RFU, RNF170 / Fold change vs veh, RNF170 / RFU, ZNF28 / Fold change vs veh, ZNF28 / RFU, RNGTT / Fold change vs veh, RNGTT / RFU, OGT / Fold change vs veh, OGT / RFU, BRD1 / Fold change vs veh, BRD1 / RFU, MARS / Fold change vs veh, MARS / RFU, ZNF655 / Fold change vs veh, ZNF655 / RFU, FAHD1 / Fold change vs veh, FAHD1 / RFU, BDP1 / Fold change vs veh, BDP1 / RFU, LRRCC1 / Fold change vs veh, LRRCC1 / RFU, ARID1A / Fold change vs veh, ARID1A / RFU, ZNF146 / Fold change vs veh, ZNF146 / RFU, ZNF330 / Fold change vs veh, ZNF330 / RFU, GPN3 / Fold change vs veh, GPN3 / RFU, C9orf123 / Fold change vs veh, C9orf123 / RFU, N4BP2L2 / Fold change vs veh, N4BP2L2 / RFU, ARFIP1 / Fold change vs veh, ARFIP1 / RFU, FAM179B / Fold change vs veh, FAM179B / RFU, BCL10 / Fold change vs veh, BCL10 / RFU, UHRF1BP1L / Fold change vs veh, UHRF1BP1L / RFU, BET1 / Fold change vs veh, BET1 / RFU, CNOT2 / Fold change vs veh, CNOT2 / RFU, ZNF268 / Fold change vs veh, ZNF268 / Fold change vs veh, ZNF507 / RFU, DGCR2 / Fold change vs veh, DGCR2 / RFU, WDSUB1 / Fold change vs veh, WDSUB1 / Fold change vs veh, HSP90B1 /// MIR3652 / RFU, ADSS / Fold change vs veh, ADSS / RFU, GK / Fold change vs veh, GK / RFU, ZNF148 / Fold change vs veh, ZNF148 / RFU, TAF9 / Fold change vs veh, TAF9 / RFU, SLC1A5 / Fold change vs veh, SLC1A5 / RFU, SLMO2 / Fold change vs veh, SLMO2 / RFU, ABCC4 / Fold change vs veh, ABCC4 / RFU, LOC101060439 /// RAP1B / Fold change vs veh, LOC101060439 /// RAP1B / RFU, RFX7 / Fold change vs veh, RFX7 / RFU, GTPBP10 / Fold change vs veh, GTPBP10 / RFU, CNEP1R1 / Fold change vs veh, CNEP1R1 / RFU, BIVM-ERCC5 /// ERCC5 / Fold change vs veh, BIVM-ERCC5 /// ERCC5 / RFU, ILF3 / Fold change vs veh, ILF3 / RFU 11762660_at / Fold change /veh 11762660_at / RFU VCAN (11757783_s_at) / Fold change /veh VCAN (11757783_s_at) / RFU DDX43 (11728927_at) / Fold change /veh DDX43 (11728927_at) / RFU KRT8 (11758188_x_at) / Fold change /veh KRT8 (11758188_x_at) / RFU NKD1 (11759106_at) / Fold change /veh NKD1 (11759106_at) / RFU SRD5A1 (11742802_a_at) / Fold change /veh SRD5A1 (11742802_a_at) / RFU TPSAB1 /// TPSB2 (11721975_s_at) / Fold change /veh TPSAB1 /// TPSB2 (11721975_s_at) / RFU GSTM3 (11746129_a_at) / Fold change /veh GSTM3 (11746129_a_at) / RFU IL23R (11737362_x_at) / Fold change /veh IL23R (11737362_x_at) / RFU TMEM51 (11727254_a_at) / Fold change /veh TMEM51 (11727254_a_at) / RFU PIWIL2 (11732686_x_at) / Fold change /veh PIWIL2 (11732686_x_at) / RFU ORM1 (11744905_x_at) / Fold change /veh ORM1 (11744905_x_at) / RFU CCDC152 (11743942_at) / Fold change /veh CCDC152 (11743942_at) / RFU ECM1 (11717891_a_at) / Fold change /veh ECM1 (11717891_a_at) / RFU IL23R (11748794_a_at) / Fold change /veh IL23R (11748794_a_at) / RFU TNFAIP8L3 (11732012_x_at) / Fold change /veh TNFAIP8L3 (11732012_x_at) / RFU MBOAT4 (11741988_at) / Fold change /veh MBOAT4 (11741988_at) / RFU 11764193_at / Fold change /veh 11764193_at / RFU TMEM53 (11763286_at) / Fold change /veh TMEM53 (11763286_at) / RFU MAGEB2 (11727129_at) / Fold change /veh MAGEB2 (11727129_at) / RFU TMEM200A (11744735_a_at) / Fold change /veh TMEM200A (11744735_a_at) / RFU CCDC152 (11751479_a_at) / Fold change /veh CCDC152 (11751479_a_at) / RFU FAM211A (11726209_a_at) / Fold change /veh FAM211A (11726209_a_at) / RFU RGS16 (11746705_a_at) / Fold change /veh RGS16 (11746705_a_at) / RFU VCAN (11755009_s_at) / Fold change /veh VCAN (11755009_s_at) / RFU RHOB (11743442_s_at) / Fold change /veh RHOB (11743442_s_at) / RFU RGS16 (11720943_a_at) / Fold change /veh RGS16 (11720943_a_at) / RFU RGS16 (11720944_at) / Fold change /veh RGS16 (11720944_at) / RFU, VPS4B / Fold change vs veh, VPS4B / RFU, CREB1 / Fold change vs veh, CREB1 / RFU, DNAJC13 / Fold change vs veh, DNAJC13 / RFU, GNAQ / Fold change vs veh, GNAQ / RFU, CDK5R1 / Fold change vs veh, CDK5R1 / RFU, ZRANB3 / Fold change vs veh, ZRANB3 / RFU, CUL4A / Fold change vs veh, CUL4A / RFU, CCNY / Fold change vs veh, CCNY / RFU, UFL1 / Fold change vs veh, UFL1 / RFU, COG3 / Fold change vs veh, COG3 / RFU, DIAPH2 / Fold change vs veh, DIAPH2 / RFU, SKA2 / Fold change vs veh, SKA2 / RFU, AFF3 / Fold change vs veh, AFF3 / RFU, LMF1 / Fold change vs veh, LMF1 / RFU, IPO11 / Fold change vs veh, IPO11 / RFU, DFFB / Fold change vs veh, DFFB / RFU, FOXP1 / Fold change vs veh, FOXP1 / RFU, CARD8 / Fold change vs veh, CARD8 / RFU, STRN3 / Fold change vs veh, STRN3 / RFU, ADK / Fold change vs veh, ADK / RFU, RASSF2 / Fold change vs veh, RASSF2 / RFU, WIPF1 / Fold change vs veh, WIPF1 / RFU, LARP1B / Fold change vs veh, LARP1B / RFU, RASA1 / Fold change vs veh, RASA1 / RFU, RB1 / Fold change vs veh, RB1 / RFU, PPFIA1 / Fold change vs veh, PPFIA1 / RFU, MAT2A / Fold change vs veh, MAT2A / RFU, CCT5 / Fold change vs veh, CCT5 / RFU, WDR92 / Fold change vs veh, WDR92 / RFU, CUX1 / Fold change vs veh, CUX1 / RFU, TTC7A / Fold change vs veh, TTC7A / RFU, TMEM135 / Fold change vs veh, TMEM135 / RFU, DEPTOR / Fold change vs veh, DEPTOR / RFU, CPM / Fold change vs veh, CPM / RFU, DNAJB6 / Fold change vs veh, DNAJB6 / RFU, CACNA2D3 / Fold change vs veh, CACNA2D3 / RFU, DTX4 / Fold change vs veh, DTX4 / RFU, TFCP2 / Fold change vs veh, TFCP2 / RFU, GMCL1 /// GMCL1P1 / Fold change vs veh, GMCL1 /// GMCL1P1 / RFU, AEBP2 / Fold change vs veh, AEBP2 / RFU, SNHG1 /// SNORD22 /// SNORD25 /// SNORD26 /// SNORD27 /// SNORD28 /// SNORD29 /// SNORD31 / Fold change vs veh, SNHG1 /// SNORD22 /// SNORD25 /// SNORD26 /// SNORD27 /// SNORD28 /// SNORD29 /// SNORD31 / Fold change (Aza/veh), C12orf56 (ProbeSet 11735607_a_at) / Fold change (ACY-1035/veh), C12orf56 (ProbeSet 11735607_a_at) / Fold change (Aza/veh), FGFR1OP (ProbeSet 11751329_s_at) / Fold change (ACY-1035/veh), FGFR1OP (ProbeSet 11751329_s_at) / Fold change (Aza/veh), VPS36 (ProbeSet 11739960_a_at) / Fold change (ACY-1035/veh), VPS36 (ProbeSet 11739960_a_at) / RFU SYPL1 (11715823_x_at) / Fold change /veh SYPL1 (11715823_x_at) / RFU IGFBP7 (11715501_s_at) / Fold change /veh IGFBP7 (11715501_s_at) / RFU REEP3 (11722064_at) / Fold change /veh REEP3 (11722064_at) / RFU IGLL1 (11728026_x_at) / Fold change /veh IGLL1 (11728026_x_at): dose or concentration left out as unconfirmed
Conditions: ProbeSet 11722022_s_at; LIST D

## Nc1ccc(-c2cccs2)cc1NC(=O)c1ccc2c(c1)cc(C1CC1)n2CCN1CCOCC1 [ACY-1035]
  Fold change vs veh, CDK5R1: 0.91
